Key:
myoblast C2C12 = assay: Gene analysis (RNA-seq) in C-82 treated myoblasts; type: cell-based, mouse; details: C-82 treated C2C12
Method: This Example investigated what gene modulation C-82 is involved with in myoblast C2C12 to identify a gene that is useful in the diagnosis or treatment of sarcopenia.
Gene analysis (RNA-seq) in C-82 treated myoblasts was performed by the same method as Example 2.

[1] = Body weight and behavior during the dosing period; type: in vivo, mouse; details: intraperitoneal, twice a week over three months, 20 mg/kg/day; young and old mice
Method: OK-1 manufactured in Manufacturing Example 1 was intraperitoneally administered to young and old mice twice a week over three months. The dosage was 20 mg/kg/day.

old mice = assay: Muscle mass by MRI (volume of right gastrocnemius muscle/soleus muscle), with/without treadmill exercise; type: in vivo, mouse
Method: OK-1 was then intraperitoneally administered to each mouse twice a week at 20 mg/kg/day over 8 weeks (i.e., until reaching 23 week old and 88 week old, respectively). Treadmill exercise was conducted three times a week at 8 m/minute for 5 minutes→15 m/minute for 35 minutes while administering OK-1 twice a week at 20 mg/kg/day over 5 weeks (i.e., until reaching 28 week old and 93 week old, respectively). The muscle mass was then measured with the following equipment and conditions through MRI (FIG. 1B). MRI (MRminiSA1545, Japan REDOX) (magnetic flux density: 1.5 tesla (permanent magnet) (temporal resolution: 100 ns) was used to capture images of the lower limbs of the mice. The recovered data was converted into dicom data, and the volume of right gastrocnemius muscle/soleus muscle was quantified with Osirix Lite.

[2] = system: ALS mouse models (e.g., SOD1G93A mice); assay: ALS mouse model; type: in vivo; details: administered versus non-administered group
Method: ALS mouse models (e.g., SOD1G93A mice) were divided into two groups. OK was administered to one of the groups, and OK was not administered to the other group.

[3] = system: Diabetes mouse models (e.g., KK/TaJcl); assay: Diabetes mouse model; type: in vivo; details: administered versus non-administered group
Method: Diabetes mouse models (e.g., KK/TaJcl) were divided into two groups. OK was administered to one of the groups, and OK was not administered to the other group.

[4] = system: Mice induced to be obese by feeding high fat feed; assay: High fat feed obese mice (metabolism); type: in vivo, mouse; details: administered versus non-administered group
Method: Mice induced to be obese by feeding high fat feed were divided into two groups. OK was administered to one of the groups, and OK was not administered to the other group.

| SMILES | gene group associated with C-82 (upstream transcription factor analysis) (myoblast C2C12) | genes decreased significantly in myoblasts (myoblast C2C12) [genes] | genes increased significantly in myoblasts (myoblast C2C12) [genes] | change in body weight and behavioral abnormality during the dosing period [1] | muscle mass (MRI), combined use of administration with exercise (old mice; 20 mg/kg/day twice a week plus treadmill exercise three times a week over 5 weeks) | muscle mass (MRI) (old mice; intraperitoneal 20 mg/kg/day twice a week over 8 weeks, then 5 further weeks) | ALS [2] | insulin secretion and insulin resistance [3] | metabolism [4] |
| --- | --- | --- | --- | --- | --- | --- | --- | --- | --- |
| C[C@H]1[C@H]2N(C(=O)CN(C)N2C(=O)NCc2ccccc2)[C@@H](Cc2ccc(O)cc2)C(=O)N1Cc1cccc2cccnc12 [C-82, (6S,9S)—N-benzyl-6-(4-hydroxybenzyl)-2,9-dimethyl-4,7-dioxo-8-(quinolin-8-ylmethyl)hexahydro-2H-pyrazino[2,1-c][1,2,4]triazine-1(6H)-carboxamide] | Nfkb1, Srebf2, Sp1, Trp53, Xbp1, Myod1, Srebf1, Jun, Stat3, Sp3, Myf6, Nr3c1, Foxo3, Nfe212, Myf5, Ahr, Ep300, Myog, and Usf2 | 611 | 581 |  |  |  |  |  |  |
| C[C@H]1[C@H]2N(C(=O)CN(C)N2C(=O)NCc2ccccc2)[C@@H](Cc2ccc(OP(=O)(O)O)cc2)C(=O)N1Cc1cccc2cccnc12 [OK-1] |  |  |  | a significant change in body weight and behavioral abnormality were not observed | muscle mass significantly recovers synergistically | increases muscle mass in old mice | ALS is improved | at least one of insulin secretion and insulin resistance is improved | metabolism is improved |

Reference: patent US20230390296A1, “NOVEL TREATMENT AND PREVENTION OF SARCOPENIA-RELATED DISEASES” (KEIO UNIVERSITY, priority 2020, published 2023)
